Measured values published in patent publication US20240083857A1, “2-Methyl-Quinazolines” (Bayer Pharma Aktiengesellschaft, priority 2017, published 2024).

Columns and labels:
[1] = biological target: K-Ras^G12C : hSOS1 interaction (Homo sapiens, UniProt Q07889); assay: Biochemical assay 1: K-Ras^G12C interaction assay with hSOS1 (HTRF); format: binding; conditions: E-notation values; unit inferred; read-out: Assay 1 (KRAS-SOS interaction) IC50
[2] = biological target: human SOS1 (nucleotide exchange of K-Ras^G12C) (Homo sapiens, UniProt Q07889); assay: Biochemical assay 2: K-Ras^G12C activation assay by hSOS1 at high GTP concentration (HTRF); conditions: E-notation values; unit inferred; 50 μM GTP; read-out: Assay 2 (KRAS-Activation, high GTP) IC50

Compound | IC50 [1] [nM] | IC50 [2] [nM]
COc1cc(C)c2nc(C)nc(N[C@H](C)c3cccc(Cl)c3)c2c1 [Example 396, N-[(1R)-1-(3-chlorophenyl)ethyl]-6-methoxy-2,8-dimethylquinazolin-4-amine] | 2240 | 1150
COc1cc2nc(C)nc(NC(C)c3ccc(-c4cccc(Cl)c4CN)s3)c2cc1OC (stereo not shown) [Example 397, N-[1-{5-[2-(aminomethyl)-3-chlorophenyl]thiophen-2-yl}ethyl]-6,7-dimethoxy-2-methylquinazolin-4-amine] | 297 | 209
COc1cc2nc(C)nc(NC(C)c3ccc(-c4ccc(Cl)cc4CN)s3)c2cc1OC (stereo not shown) [Example 398, N-[1-{5-[2-(aminomethyl)-4-chlorophenyl]thiophen-2-yl}ethyl]-6,7-dimethoxy-2-methylquinazolin-4-amine] | 104 | 63.4
COc1cc2nc(C)nc(NC(C)c3cc(C)c(-c4ccc(F)cc4CN)s3)c2cc1OC (stereo not shown) [Example 399, N-(1-{5-[2-(aminomethyl)-4-fluorophenyl]-4-methyl-2-thienyl}ethyl)-6,7-dimethoxy-2-methylquinazolin-4-amine] | 333 | 192
COc1cc2nc(C)nc(NC(C)c3cc(C)c(-c4ccccc4CN(C)C)s3)c2cc1OC (stereo not shown) [Example 400, N-[1-(5-{2-[(dimethylamino)methyl]phenyl}-4-methyl-2-thienyl)ethyl]-6,7-dimethoxy-2-methylquinazolin-4-amine] | 78.7 | 68.8
COc1cc2nc(C)nc(NC(C)c3cc(C)c(-c4ccccc4CN(C)CCO)s3)c2cc1OC (stereo not shown) [Example 401, 2-{[2-(5-{1-[(6,7-dimethoxy-2-methylquinazolin-4-yl)amino]ethyl}-3-methyl-2-thienyl)benzyl](methyl)amino}ethanol] | 76.3 | 65.2
CNCc1ccccc1-c1sc(C(C)Nc2nc(C)nc3cc(OC)c(OC)cc23)cc1C (stereo not shown) [Example 402, 6,7-di methoxy-2-methyl-N-[1-(4-methyl-5-{2-[(methylamino)methyl]phenyl}thiophen-2-yl)ethyl]quinazolin-4-amine] | 82.8 | 75.2
COc1cc2nc(C)nc(NC(C)c3ccc(-c4ccccc4C(O)CO)s3)c2cc1OC (stereo not shown) [Example 403] | 442 | 548
Cc1ccc2nc(C)nc(N[C@H](C)c3cccc(Cl)c3)c2c1 [Example 404, N-[(1R)-1-(3-chlorophenyl)ethyl]-2,6-dimethylquinazolin-4-amine] | 4680 | 1450
Cc1nc(N[C@H](C)c2cccc(Cl)c2)c2cc(-c3cn[nH]c3)ccc2n1 [Example 405, N-[(1R)-1-(3-chlorophenyl)ethyl]-2-methyl-6-(1H-pyrazol-4-yl)quinazolin-4-amine] | 1110 | 448
Cc1nc(N[C@H](C)c2cccc(Cl)c2)c2cc(-c3cnn(C)c3)ccc2n1 [Example 406, N-[(1R)-1-(3-chlorophenyl)ethyl]-2-methyl-6-(1-methyl-1H-pyrazol-4-yl)quinazolin-4-amine] | 727 | 400
Cc1nc(N[C@H](C)c2cccc(Cl)c2)c2cc(C3CC3)ccc2n1 [Example 407, N-[(1R)-1-(3-chlorophenyl)ethyl]-6-cyclopropyl-2-methylquinazolin-4-amine] | 1250 | 1060
COc1cc2nc(C)nc(NC(C)c3ccc(-c4c(Cl)cccc4CNC(=O)OC(C)(C)C)s3)c2cc1OC (stereo not shown) [Example 408, tert-butyl [3-chloro-2-(5-{1-[(6,7-dimethoxy-2-methylquinazolin-4-yl)amino]ethyl}thiophen-2-yl)benzyl]carbamate] | 533 | 560
COc1cc2nc(C)nc(NC(C)c3ccc(-c4c(Cl)cccc4CN)s3)c2cc1OC (stereo not shown) [Example 409, N-[1-{5-[2-(aminomethyl)-6-chlorophenyl]thiophen-2-yl}ethyl]-6,7-dimethoxy-2-methylquinazolin-4-amine] | 49.2 | 28
